Values of other authors as cited in patent US20250250539A1, “METHOD FOR EVALUATING ACTIVITY OF INHIBITING OR PROMOTING AGGREGATION OF AGGREGATING PROTEINS” (KANEKA CORPORATION, priority 2022, published 2025).

Test system: amyloid β protein
Conditions: known cell-free evaluation system

O=C(/C=C/c1ccc(O)c(O)c1)O[C@H](Cc1ccc(O)c(O)c1)C(=O)O [rosmarinic acid]
activity of inhibiting aggregation: exhibiting activity of inhibiting aggregation
